In the NIST ThermoML archive (doi:10.1007/s10765-018-2361-8):

Settings: for mass density / kinematic viscosity: 101.33 kPa; for mass density / kinematic viscosity / vapor or sublimation pressure: Liquid; for mass density: Pycnometric method; for surface tension liquid-gas: Capillary rise; for kinematic viscosity: Capillary tube (Ostwald / Ubbelohde) method; for vapor or sublimation pressure: Closed cell (Static) method

CC(C)O [propan-2-ol]
Settings | kinematic viscosity [m2/s] | mass density [kg/m3] | surface tension liquid-gas [mN/m] | vapor or sublimation pressure [kPa]
263.1 K | – | 810.9 | – | –
283.1 K | – | 795.3 | – | –
293.2 K | 3.12e-06 | – | 21.4 | –
295.3 K | – | 784.3 | – | –
297.9 K | – | – | – | 6.38
303.2 K | 2.35e-06 | – | – | –
303.3 K | – | – | 20.6 | –
303.6 K | – | 777.5 | – | –
303.7 K | – | – | – | 8.93
313.2 K | – | – | 19.8 | –
321.2 K | – | – | – | 21.91
323.2 K | 1.39e-06 | – | – | –
323.3 K | – | – | 19 | –
323.4 K | – | 760.1 | – | –
333.2 K | – | – | 18.2 | –
333.5 K | – | – | – | 39.46
343.3 K | 9e-07 | 741 | 17.4 | 61.57
352.9 K | – | – | – | 92.28
362.5 K | – | – | – | 134.96
